Experimental data published in patent publication US10322112B2, “Compound combinations for attenuation of bacterial virulence” (priority 2016, dated 2019).

Biological target: QscR (Pseudomonas aeruginosa, UniProt G3XD77)
Conditions: compounds at 100 mm; E. coli reporter strain JLD271/pJN105Q/pSC11-Q; 100 mm OdDHL = 100%; error ±10%
From the text: Construction of pSC11-Q: A 348 bp fragment spanning the upstream region of PA1897 (¢304 to +43 relative to the PA1897 translationalstart codon) was amplified from plasmid pJL101*by using primers 5′-GAATAT GGATCC TCTCTC CGCAGA TACCTG-3′ (BamHI site underlined) SEQ ID NO:5 and 5′-GCTATT GAATTC TGAAGA TGAATA GCGCCAC-3′ (EcoRI site underlined) SEQ ID NO:6. The PCR-generated fragment was digested with EcoRI and BamHI and subsequently ligated into EcoRI/BamHI-digested pPROBE-KT to generate pPROBE-KQ2. […] CGCC-3′ (BamHI site underlined) SEQ ID NO:8. The PCR-generated fragment was digested with SalI and BamHI and subsequently ligated into SalI/BamHI-digested pSC11 to generate pSC11-Q.
E. coli reporter gene assays: Primary assays for RhlR, LasR, and QscR activity in E. coli JLD271 reporter (beta-galactosidase) strains were performed as reported by Welsh et al. 2015, with the following modifications:
For all primary and dose-response antagonism assays, the concentration of native ligand utilized was approximately equal to its EC50 value in each bacterial reporter strain. For RhlR, LasR, and QscR primary antagonism assays, synthetic ligand (100 mm) was screened against BHL (10 mm), OdDHL (2 nm), and OdDHL (15 nm), respectively. For RhlR, LasR, and QscR primary agonism assays, synthetic compound (100 mm) was screened alongside and compared to the natural ligand (900 mm BHL or 100 mm OdDHL) for the receptor. As part of the beta-galactosidase assay protocol, plates to which CPRG substrate had been added were incubated at either 25° C. (LasR assay) or 30° C. (RhlR and QscR assays) until positive control wells developed a deep red color (10 min for LasR, 30 min for RhlR, and 60 min for QscR). Dose-response reporter gene assays were performed according to these protocols by using varying concentrations of compound.

Sequence of QscR (G3XD77 entry or part of it): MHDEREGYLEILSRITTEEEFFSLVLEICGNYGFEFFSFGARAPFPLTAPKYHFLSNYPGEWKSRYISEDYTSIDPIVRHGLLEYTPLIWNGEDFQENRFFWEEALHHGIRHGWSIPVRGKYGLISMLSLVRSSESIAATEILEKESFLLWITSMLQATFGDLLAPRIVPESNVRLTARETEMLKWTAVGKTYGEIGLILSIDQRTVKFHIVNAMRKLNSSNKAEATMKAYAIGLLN

## O=C(N[C@H]1CCOC1=O)C1CCCC1 [compound 3]
  Activation [%] QscR: 4%
